Test system: MCA-207 fibrosarcoma tumor cells
Assay: Growth of MCA-207 tumors (Example 11)
Format: in vivo, C57 mice
Settings: ganciclovir with empty liposomes (data not shown)
Experimental: This example describes the treatment of tumors using the method of the invention. […] The general method is set out in FIG. 8.
24 female C57 mice were seeded with 100,000 MCA-207 fibrosarcoma tumor cells (provided by S. Rosenberg, National Cancer Institute, Frederick/Bethesda, MD) by intra-dermal injection on day zero. The tumor cells had been cultivated and prepared according to standard techniques using RPMI media with 10% Fetal Bovine Serum (see for example Current Protocols in Molecular Biology). Beginning on day 5, all animals were treated with the lipid/therapeutic nucleic acid formulation listed in the chart, supra. The formulation was delivered intravenously through the tail vein. 80 μg of pINEX-TK10 DNA were injected in a total volume of 200 μL. Treatments were administered on days 5, 7, 9, 11 and 13.
Beginning on day 5, all animals were treated with ganciclovir twice daily. 1 mg (˜50 mg/kg) were injected intra-peritoneally in a total volume of 200 μL PBS. Treatments continued twice daily for 12 days (see, FIG. 9(A)). Mice were monitored for tumor growth.

SMILES: Nc1nc(O)c2ncn(COC(CO)CO)c2n1 [ganciclovir]
- Tumor reduction: no effect
